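These data come from cells grown in 96-well plates and exposed to compound for 48 hours at five concentrations. TGI is the concentration that stops growth completely.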
Assays:
Assay in all cases: NCI anticancer screen, dose series, 48 h
786-0 renal = tested on: 786-0 renal
A498 renal = tested on: A498 renal
A549 NSCLC = tested on: A549 NSCLC
ACHN renal = tested on: ACHN renal
BT-549 breast = tested on: BT-549 breast
CAKI-1 renal = tested on: CAKI-1 renal
CCRF-CEM leukemia = tested on: CCRF-CEM leukemia
COLO 205 colon = tested on: COLO 205 colon
DU-145 prostate = tested on: DU-145 prostate
EKVX NSCLC = tested on: EKVX NSCLC
HCC-2998 colon = tested on: HCC-2998 colon
HCT-116 colon = tested on: HCT-116 colon
HCT-15 colon = tested on: HCT-15 colon
HL-60(TB) leukemia = tested on: HL-60(TB) leukemia
HOP-62 NSCLC = tested on: HOP-62 NSCLC
HOP-92 NSCLC = tested on: HOP-92 NSCLC
HS 578T breast = tested on: HS 578T breast
HT29 colon = tested on: HT29 colon
IGROV1 ovarian = tested on: IGROV1 ovarian
K-562 leukemia = tested on: K-562 leukemia
KM12 colon = tested on: KM12 colon
LOX IMVI melanoma = tested on: LOX IMVI melanoma
M14 melanoma = tested on: M14 melanoma
MALME-3M melanoma = tested on: MALME-3M melanoma
MCF7 breast = tested on: MCF7 breast
MDA-MB-435 = tested on: MDA-MB-435
MDA-N = tested on: MDA-N
MOLT-4 leukemia = tested on: MOLT-4 leukemia
NCI-H23 lung = tested on: NCI-H23 lung
NCI-H460 lung = tested on: NCI-H460 lung
NCI-H522 lung = tested on: NCI-H522 lung
NCI/ADR-RES ovarian = tested on: NCI/ADR-RES ovarian
OVCAR-3 ovarian = tested on: OVCAR-3 ovarian
OVCAR-4 ovarian = tested on: OVCAR-4 ovarian
OVCAR-5 ovarian = tested on: OVCAR-5 ovarian
OVCAR-8 ovarian = tested on: OVCAR-8 ovarian
PC-3 prostate = tested on: PC-3 prostate
RXF 393 renal = tested on: RXF 393 renal
SF-268 CNS = tested on: SF-268 CNS
SF-295 CNS = tested on: SF-295 CNS
SF-539 CNS = tested on: SF-539 CNS
SK-MEL-2 melanoma = tested on: SK-MEL-2 melanoma
SK-MEL-5 melanoma = tested on: SK-MEL-5 melanoma
SK-OV-3 ovarian = tested on: SK-OV-3 ovarian
SN12C renal = tested on: SN12C renal
SNB-19 CNS = tested on: SNB-19 CNS
SNB-75 CNS = tested on: SNB-75 CNS
SR leukemia = tested on: SR leukemia
SW-620 colon = tested on: SW-620 colon
T-47D breast = tested on: T-47D breast
TK-10 renal = tested on: TK-10 renal
U251 CNS = tested on: U251 CNS
UACC-257 melanoma = tested on: UACC-257 melanoma
UACC-62 melanoma = tested on: UACC-62 melanoma
UO-31 renal = tested on: UO-31 renal
MDA-MB-231 breast = tested on: MDA-MB-231 breast
NCI-H226 lung = tested on: NCI-H226 lung
SK-MEL-28 melanoma = tested on: SK-MEL-28 melanoma
RPMI-8226 leukemia = tested on: RPMI-8226 leukemia

## CC[C@@]1(C[C@H]2C[C@@]3(C(=O)OC)c4[nH]c5ccccc5c4CCN3C2=S)COC2(CCCCC2)O1
786-0 renal
  TGI: > 100 µM
A498 renal
  TGI: > 100 µM
A549 NSCLC
  TGI: > 100 µM
ACHN renal
  TGI: > 100 µM
BT-549 breast
  TGI: 41.6 µM
CAKI-1 renal
  TGI: > 100 µM
CCRF-CEM leukemia
  TGI: > 100 µM
COLO 205 colon
  TGI: > 100 µM
DU-145 prostate
  TGI: > 100 µM
EKVX NSCLC
  TGI: > 100 µM
HCC-2998 colon
  TGI: > 100 µM
HCT-116 colon
  TGI: > 100 µM
HCT-15 colon
  TGI: > 100 µM
HL-60(TB) leukemia
  TGI: > 100 µM
HOP-62 NSCLC
  TGI: > 100 µM
HOP-92 NSCLC
  TGI: > 100 µM
HS 578T breast
  TGI: > 100 µM
HT29 colon
  TGI: > 100 µM
IGROV1 ovarian
  TGI: > 100 µM
K-562 leukemia
  TGI: > 100 µM
KM12 colon
  TGI: 67.8 µM
LOX IMVI melanoma
  TGI: > 100 µM
M14 melanoma
  TGI: > 100 µM
MALME-3M melanoma
  TGI: > 100 µM
MCF7 breast
  TGI: > 100 µM
MDA-MB-435
  TGI: > 100 µM
MDA-N
  TGI: > 100 µM
MOLT-4 leukemia
  TGI: > 100 µM
NCI-H23 lung
  TGI: > 100 µM
NCI-H460 lung
  TGI: > 100 µM
NCI-H522 lung
  TGI: > 100 µM
NCI/ADR-RES ovarian
  TGI: > 100 µM
OVCAR-3 ovarian
  TGI: > 100 µM
OVCAR-4 ovarian
  TGI: > 100 µM
OVCAR-5 ovarian
  TGI: > 100 µM
OVCAR-8 ovarian
  TGI: > 100 µM
PC-3 prostate
  TGI: > 100 µM
RXF 393 renal
  TGI: > 100 µM
SF-268 CNS
  TGI: > 100 µM
SF-295 CNS
  TGI: > 100 µM
SF-539 CNS
  TGI: > 100 µM
SK-MEL-2 melanoma
  TGI: > 100 µM
SK-MEL-5 melanoma
  TGI: 39 µM
SK-OV-3 ovarian
  TGI: > 100 µM
SN12C renal
  TGI: > 100 µM
SNB-19 CNS
  TGI: > 100 µM
SNB-75 CNS
  TGI: > 100 µM
SR leukemia
  TGI: > 100 µM
SW-620 colon
  TGI: 36.2 µM
T-47D breast
  TGI: > 100 µM
TK-10 renal
  TGI: 87.7 µM
U251 CNS
  TGI: > 100 µM
UACC-257 melanoma
  TGI: > 100 µM
UACC-62 melanoma
  TGI: > 100 µM
UO-31 renal
  TGI: > 100 µM

## COc1ccc(C2=Cc3nc2c(-c2ccccc2)c2ccc([nH]2)c(-c2ccccc2)c2nc(c(-c4ccccc4)c4ccc([nH]4)c3-c3ccccc3)C=C2)cc1
786-0 renal
  TGI: > 100 µM
A498 renal
  TGI: > 100 µM
A549 NSCLC
  TGI: > 100 µM
ACHN renal
  TGI: > 100 µM
BT-549 breast
  TGI: > 100 µM
CAKI-1 renal
  TGI: > 100 µM
CCRF-CEM leukemia
  TGI: > 100 µM
COLO 205 colon
  TGI: > 100 µM
DU-145 prostate
  TGI: > 100 µM
EKVX NSCLC
  TGI: > 100 µM
HCC-2998 colon
  TGI: > 100 µM
HCT-116 colon
  TGI: > 100 µM
HCT-15 colon
  TGI: > 100 µM
HL-60(TB) leukemia
  TGI: > 100 µM
HOP-62 NSCLC
  TGI: > 100 µM
HOP-92 NSCLC
  TGI: > 100 µM
HS 578T breast
  TGI: > 100 µM
HT29 colon
  TGI: > 100 µM
IGROV1 ovarian
  TGI: > 100 µM
K-562 leukemia
  TGI: > 100 µM
KM12 colon
  TGI: > 100 µM
LOX IMVI melanoma
  TGI: > 100 µM
M14 melanoma
  TGI: > 100 µM
MALME-3M melanoma
  TGI: > 100 µM
MCF7 breast
  TGI: > 100 µM
MDA-MB-231 breast
  TGI: > 100 µM
MDA-MB-435
  TGI: > 100 µM
MDA-N
  TGI: > 100 µM
MOLT-4 leukemia
  TGI: > 100 µM
NCI-H226 lung
  TGI: > 100 µM
NCI-H23 lung
  TGI: > 100 µM
NCI-H460 lung
  TGI: > 100 µM
OVCAR-3 ovarian
  TGI: > 100 µM
OVCAR-4 ovarian
  TGI: > 100 µM
OVCAR-5 ovarian
  TGI: > 100 µM
OVCAR-8 ovarian
  TGI: > 100 µM
PC-3 prostate
  TGI: > 100 µM
RXF 393 renal
  TGI: > 100 µM
SF-268 CNS
  TGI: > 100 µM
SF-295 CNS
  TGI: > 100 µM
SF-539 CNS
  TGI: > 100 µM
SK-MEL-2 melanoma
  TGI: > 100 µM
SK-MEL-28 melanoma
  TGI: > 100 µM
SK-MEL-5 melanoma
  TGI: > 100 µM
SK-OV-3 ovarian
  TGI: > 100 µM
SN12C renal
  TGI: > 100 µM
SNB-19 CNS
  TGI: > 100 µM
SNB-75 CNS
  TGI: > 100 µM
SR leukemia
  TGI: > 100 µM
SW-620 colon
  TGI: > 100 µM
T-47D breast
  TGI: > 100 µM
TK-10 renal
  TGI: > 100 µM
U251 CNS
  TGI: 91.3 µM
UACC-62 melanoma
  TGI: > 100 µM
UO-31 renal
  TGI: > 100 µM

## CN/N=C(/C=C/c1ccccc1)C(C)C
786-0 renal
  TGI: > 100 µM
A549 NSCLC
  TGI: > 100 µM
ACHN renal
  TGI: > 100 µM
BT-549 breast
  TGI: > 100 µM
CAKI-1 renal
  TGI: > 100 µM
CCRF-CEM leukemia
  TGI: > 100 µM
COLO 205 colon
  TGI: > 100 µM
DU-145 prostate
  TGI: > 100 µM
EKVX NSCLC
  TGI: > 100 µM
HCC-2998 colon
  TGI: > 100 µM
HCT-116 colon
  TGI: > 100 µM
HCT-15 colon
  TGI: > 100 µM
HL-60(TB) leukemia
  TGI: > 100 µM
HOP-62 NSCLC
  TGI: > 100 µM
HS 578T breast
  TGI: > 100 µM
HT29 colon
  TGI: > 100 µM
IGROV1 ovarian
  TGI: > 100 µM
K-562 leukemia
  TGI: > 100 µM
KM12 colon
  TGI: > 100 µM
LOX IMVI melanoma
  TGI: > 100 µM
M14 melanoma
  TGI: > 100 µM
MALME-3M melanoma
  TGI: > 100 µM
MCF7 breast
  TGI: > 100 µM
MDA-MB-435
  TGI: > 100 µM
MDA-N
  TGI: > 100 µM
MOLT-4 leukemia
  TGI: > 100 µM
NCI-H226 lung
  TGI: > 100 µM
NCI-H23 lung
  TGI: > 100 µM
NCI-H522 lung
  TGI: > 100 µM
NCI/ADR-RES ovarian
  TGI: > 100 µM
OVCAR-3 ovarian
  TGI: > 100 µM
OVCAR-4 ovarian
  TGI: > 100 µM
OVCAR-5 ovarian
  TGI: > 100 µM
OVCAR-8 ovarian
  TGI: > 100 µM
PC-3 prostate
  TGI: > 100 µM
RPMI-8226 leukemia
  TGI: > 100 µM
RXF 393 renal
  TGI: > 100 µM
SF-268 CNS
  TGI: > 100 µM
SF-295 CNS
  TGI: > 100 µM
SF-539 CNS
  TGI: > 100 µM
SK-MEL-2 melanoma
  TGI: > 100 µM
SK-MEL-28 melanoma
  TGI: > 100 µM
SK-MEL-5 melanoma
  TGI: > 100 µM
SK-OV-3 ovarian
  TGI: > 100 µM
SN12C renal
  TGI: > 100 µM
SNB-19 CNS
  TGI: > 100 µM
SNB-75 CNS
  TGI: > 100 µM
SR leukemia
  TGI: > 100 µM
SW-620 colon
  TGI: > 100 µM
T-47D breast
  TGI: > 100 µM
TK-10 renal
  TGI: > 100 µM
U251 CNS
  TGI: > 100 µM
UACC-257 melanoma
  TGI: > 100 µM
UACC-62 melanoma
  TGI: > 100 µM
UO-31 renal
  TGI: > 100 µM
